Experimental data as given in US8470876B2, “Lipid composition for the treatment of skin problems in companion animals” (priority 2009, dated 2013).

Tests used:
Type in all cases: in vivo
skin and claws = experiment: Case: Bullterrier with skin problems and splitting and breaking claws; conditions: past treatment history of the same dog
From the text: A three year old, female Bullterrier Dog had suffered from various skin problems since it was a puppy. The skin problems were characterized by red spots in the stomach and hairless spots in the head and in the hind limbs. In addition to the skin problems the dog suffered from splitting and breaking claws. The claws kept constantly breaking and by the age of three the claws had never grown long enough to be clipped. […] The skin was cleared from the red spots and the hairless areas started to grow hair. The positive effects on the skin health remained over several months as the supplementation was continued. […] Three months after the supplementation with the oil blend had begun, the dog's claws needed to be clipped. This was the first time in this dog's life.

rhinarium = experiment: Case: French Bulldog with dry, rough and chapped rhinarium; conditions: past treatment history of the same dog
From the text: In this breed of dogs the rhinarium is typically black, but for this individual the black colour of the rhinarium had faded and was grey. […] Topical treatment with oil or ointments provided temporary smoothing effect and a change in colour. […] The rhinarium was no longer rough and chapped, but it was supple and had obtained a characteristic black colour. Subsequently the positive effect on the rhinarium condition was produced with the oil blend in dogs from different breeds.

atopic and pruritic skin = experiment: Case: Parson Russell terrier with atopic and pruritic skin; conditions: past treatment history of the same dog
From the text: An eight-year-old Parson Russell terrier had suffered for a long time from atopic and pruritic skin. The dog had been treated with cortisone and with a variety of different fatty acid supplements containing GLA and fish oil fatty acids (EPA and DHA). […] Constant itching tired the dog and it became phlegmatic. The dog was put on daily dosing of the nutritional oil blend as prepared in example 1 and a clear change in the dogs skin condition and behaviour occurred in a matter of weeks. The rashes and itching was reduced by 95%.

[1] = test system: symmetrical lupoid onychodystrophy (SLO); experiment: Case: schapendoes dog with symmetrical lupoid onychodystrophy (SLO); conditions: initial treatment before supplementation
Experimental: A four year old, female schapendoes dog was diagnosed with symmetrical lupoid onychodystrophy (SLO). […] Supplementation with the nutritional oil blend as prepared in example 1 at 4 ml/10 kg body weight was started immediately after the secondary infections had cleared.

O=C(O)CCCC[C@@H]1SC[C@@H]2NC(=O)N[C@@H]21 [biotin]
claws with earlier treatment (skin and claws): without any appreciable improvement
appearance of the rhinarium with earlier nutritional supplements (rhinarium): without any appreciable effect

C[C@]12CCC(=O)C=C1CC[C@@H]1[C@@H]2C(=O)C[C@@]2(C)[C@H]1CC[C@]2(O)C(=O)CO [cortisone]
effect of earlier treatments on atopic and pruritic skin (atopic and pruritic skin): provided help only for some weeks

CC1=C(C(=O)O)N2C(=O)[C@@H](NC(=O)[C@H](N)c3ccccc3)[C@H]2SC1 [cephalexin]
secondary bacterial infections in affected claws [1]: total resolution of the bacterial infection

vitamin A
appearance of the rhinarium with earlier nutritional supplements (rhinarium): without any appreciable effect
